Laboratory results: patent publication US20080261902A1, “Pharmaceutical composition containing polydatin and its application” (Shenzhen Neptunus Pharmaceutical Co., Ltd., priority 2005, published 2008)

Assays:
[1] = test system: dogs in hemorrhagic shock; assay: Treatment effect of polydatin drug compositions to dogs in hemorrhagic shock (Embodiment 20); assay type: in vivo, Beagle dogs; settings: for survival rate: 168 hours
[2] = Polydatin solutions prepared by conventional methods (high pH, heating, tween 80); assay type: physicochemical
Text: It is widely known by technicians in the field that clinic solutions require pH4.0˜9.0. Obviously, it is hard to prepare polydatin water solution of effective concentration by adjusting pH only. Furthermore, the polydatin has bad stability in solutions of high pH, so the clinic application of the polydatin drug composition preparations of high pH will be further limited. The described document No. 19 adopts heating to dissolve to obtain polydatin drug compositions. According to the experiment, the solutions obtained by heating to dissolve precipitate solute as the temperature reduces, and the polydatin concentrations in the solutions are lower than 0.5 mg/ml after indoor temperature balancing. Obviously, the method is not suitable in preparing officinal medicine preparations. China Patent Application 02134928.2 describes a method of preparing polydatin solutions for injection by adopting adjusting pH and/or adding surfactants (tween 80). […] Furthermore, the prior documents indicate that preparations of administration in vein should be avoided to use as possible because tween surfactants have potential hemolytic and antihypertensive activity. (Zhuangyue etc., applied drug preparation technique, People's medical publishing house 1999:p417)

SMILES: OCC1OC(Oc2cc(O)cc(/C=C/c3ccc(O)cc3)c2)C(O)C(O)C1O [polydatin, 3,4′,5-trihydroxy-trans stilbene-3-β-D-glucoside]
- survival rate ([1]; 1.8 mg/kg): 3 number/5
- survival rate ([1]; 3.0 mg/kg): 4 number/5
- survival rate ([1]; 5.0 mg/kg): 4 number/5
- average arterial pressure (FIG. 1) ([1]; high dose 5.0 mg/kg, compared with blank control and dopamine groups): can maintain blood pressure of dogs after acute hemorrhage
- sensitivity of polydatin (solution) [2]: sensitive to temperature and light
- polydatin concentration in solutions obtained by heating to dissolve ([2]; after indoor temperature balancing): lower than 0.5 mg/ml
- stability in solutions of high pH ([2]; high pH): bad stability
- cold preservation of polydatin drug composition ([2]; tween 80 of 0.5%, pH8.5, concentration 4 mg/ml, 4° C.): can not be cold preserved
